Data published in patent US8691727B2, “Pesticidal compositions” (Syngenta Crop Protection, LLC, priority 2005, dated 2014).

Key:
F. proliferatum = assay: Agar test: seed contamination and mycelium growth on artificially infected corn seeds; assay type: cell-based, Fusarium proliferatum; details: corn cv. Magister, after 6 days
Method: (§1) An agar test is performed to evaluate the effect of seed treatments with fludioxonil (2.5 g/100 kg seed)+mefenoxam (1.0 g/100 kg seed), thiabendazole at 10, 15 and 20 g/100 kg seed and the corresponding mixtures of all three components on seed health and viability of corn. Seed lots of corn cv. Magister, is infected artificially with either F. proliferatum or F. subglutinans, are used.
(§2) Czapek-Dox medium (OXOID) is prepared according to manufacturer's recipe: 45.4 g agar in 1 l aqua bidest., autoclaved for 15 min at 121° C., and is cooled down to 55° C. 15 ml medium is poured into each petridish (Ø 10 cm) and is allowed to cool.
(§3) 10 seeds are placed on the surface of the agar. 5 replicates per treatment are done. Petridishes are placed in an incubator at 20° C. under NUV-light (12 h a day). The number of seeds where Fusarium spp. grew out on the agar is rated after an incubation period of 6 days.
(§4) • Mefenoxam (1.0 g ai/100 kg seed)+fludioxonil (2.5 g ai/100 kg seed). • Thiabendazole at 10, 15 and 20 g ai/100 kg seed. • Mefenoxam (1.0 g ai/100 kg seed)+fludioxonil (2.5 g ai/100 kg seed)+thiabendazole (at 10, 15 or 20 g ai/100 kg seed).
(§5) For combined treatments mefenoxam+fludioxonil are applied first on the seeds as a combined formulation and after drying the second application on the seeds with thiabendazole is performed.

F. subglutinans = assay: as above; assay type: cell-based, Fusarium subglutinans; details: corn cv. Magister; for FUSSUB Activity Observed / FUSSUB Contaminated Seeds / FUSSUB Mycelium Growth: after 6 days
Method: as §1, §2, §3, §4, §5

[1] = thiabendazole 10 g ai/100 kg seed (mixture: plus mefenoxam 1.0 g + fludioxonil 2.5 g ai/100 kg seed)
[2] = thiabendazole 15 g ai/100 kg seed (mixture: plus mefenoxam 1.0 g + fludioxonil 2.5 g ai/100 kg seed)
[3] = thiabendazole 20 g ai/100 kg seed (mixture: plus mefenoxam 1.0 g + fludioxonil 2.5 g ai/100 kg seed)

## c1ccc2[nH]c(-c3cscn3)nc2c1 [Thiabendazole, thiabendazole]
F. proliferatum; [1]
  FUSPRO Activity Observed: 40%
  FUSPRO Contaminated Seeds: 62%
  FUSPRO Mycelium Growth: ~60%
F. proliferatum; [2]
  FUSPRO Contaminated Seeds: 44%
F. proliferatum; [3]
  FUSPRO Contaminated Seeds: 40%
F. proliferatum; thiabendazole 20 g ai/100 kg seed (mixture: plus mefenoxam 1.0 g + fludioxonil 2.5 g ai/100 kg seed), listed as thiabendazole
  FUSPRO Contaminated Seeds: reduces the number of Fusarium infected seeds
F. subglutinans; [1]
  FUSSUB Activity Observed: 32%
  FUSSUB Contaminated Seeds: 94%
  FUSSUB Mycelium Growth: 68%
F. subglutinans; [2]
  FUSSUB Activity Observed: 60%
  FUSSUB Contaminated Seeds: 100%
  FUSSUB Mycelium Growth: 40%
F. subglutinans; [3]
  FUSSUB Activity Observed: 91%
  FUSSUB Contaminated Seeds: 52%
  FUSSUB Mycelium Growth: 9%
F. subglutinans; thiabendazole at 10, 15 and 20 g ai/100 kg seed
  Mycelium growth, dose response (in words): linear dose response
